From patent EP1627887A2, “Mouce trace amine associated receptors” (F.HOFFMANN-LA ROCHE AG, priority 2004, dated 2006)
Like-named read-outs stand apart in the source and are kept apart here.

Assays:
Mouse TAAR 1 [1] = test: cAMP Biotrak EIA functional assay in HEK293 cells stably expressing the receptor
Protocol: (§1) The amount of cAMP produced by HEK293 cells stably expressing the indicated receptor in response to stimulation by each of the listed compounds was measured using the cAMP Biotrak EIA System (Amersham). Shown are the EC50 values in µM (means of at least three independent experiments; EC50 values are calculated from experiments carried out with 12 concentrations each in duplicates evenly distributed in the range of 30 µM - 0.1 nM). The maximal response is represented as percentage of the maximal cAMP levels induced by p-TYR.
(§2) cAMP assay: cAMP was assayed using the cAMP Biotrak Enzymeimmunoassay (EIA) System from Amersham as described in the product manual, following the so-called Non-acetylation EIA procdure.
(§3) In the protocol the following minor modifications were introduced: After stimulation of HEK cells in 96 well plates the reaction was stopped by applying equal volume of pre cooled (-20°C) ethanol. Lysis of cells was not achieved by applying the lysis buffer supplied with the kit, but with transferring the 96 well plates to -80°C for a minimum of 6 hrs (up to several days). Thereafter the contents of the 96 well plates was dried at 50°C over night, and the material remaining in the 96 well plates was resuspended in 200 µl of the assay buffer (the buffer used for resuspending all reagents of the kit). The resuspension were assayed in serial dilutions in assay buffer.

Mouse TAAR 1 [2] = system: Mouse TAAR 1
Protocol: as §1, §2, §3

CNCCc1ccc(O)cc1 [N-methyl-p-tyramine]
EC50 (Mouse TAAR 1 [1]): 1020 ± 390 nM
Max (Mouse TAAR 1 [1]; hek293 cells): 100%

CNCCc1ccccc1 [N-methyl-β-PEA]
Max (Mouse TAAR 1 [1]; hek293 cells): 100%

NCCc1c[nH]c2ccccc12 [TRY, tryptamine]
Max (Mouse TAAR 1 [1]; hek293 cells): 100%

NCCc1ccc(O)cc1 [p-TYR, p-tyramine]
EC50 (Mouse TAAR 1 [2]): 1370 ± 330 nM
Max (Mouse TAAR 1 [1]; maximal response as percentage of the maximal cAMP levels induced by p-TYR, HEK293 cells stably expressing mTAAR1): 100%

NCCc1ccccc1 [β-PEA, β-phenylethylamine]
Max (Mouse TAAR 1 [1]; hek293 cells): 100%
